{"source": "PubChem BioAssay (NCI)", "assay_in_all_cases": "NCI anticancer screen, dose series, 48 h", "key": {"[1]": {"system": "COLO 205 colon"}, "[2]": {"system": "HL-60(TB) leukemia"}, "[3]": {"system": "NCI/ADR-RES ovarian"}, "[4]": {"system": "A549 NSCLC"}, "[5]": {"system": "SNB-75 CNS"}, "[6]": {"system": "M14 melanoma"}, "[7]": {"system": "BT-549 breast"}, "[8]": {"system": "RXF 393 renal"}, "[9]": {"system": "OVCAR-5 ovarian"}, "[10]": {"system": "SK-MEL-28 melanoma"}, "[11]": {"system": "SK-MEL-5 melanoma"}, "[12]": {"system": "NCI-H522 lung"}, "[13]": {"system": "EKVX NSCLC"}, "[14]": {"system": "SK-MEL-2 melanoma"}, "[15]": {"system": "CAKI-1 renal"}, "[16]": {"system": "RPMI-8226 leukemia"}, "[17]": {"system": "LOX IMVI melanoma"}, "[18]": {"system": "HOP-62 NSCLC"}, "[19]": {"system": "MDA-MB-435"}, "[20]": {"system": "SN12C renal"}, "[21]": {"system": "786-0 renal"}, "[22]": {"system": "NCI-H226 lung"}, "[23]": {"system": "MALME-3M melanoma"}, "[24]": {"system": "NCI-H23 lung"}, "[25]": {"system": "SF-539 CNS"}, "[26]": {"system": "MDA-MB-231 breast"}, "[27]": {"system": "HCT-116 colon"}, "[28]": {"system": "SF-268 CNS"}, "[29]": {"system": "OVCAR-8 ovarian"}, "[30]": {"system": "K-562 leukemia"}, "[31]": {"system": "NCI-H460 lung"}, "[32]": {"system": "SK-OV-3 ovarian"}, "[33]": {"system": "PC-3 prostate"}, "[34]": {"system": "HOP-92 NSCLC"}, "[35]": {"system": "SF-295 CNS"}, "[36]": {"system": "HCT-15 colon"}, "[37]": {"system": "DU-145 prostate"}, "[38]": {"system": "SW-620 colon"}, "[39]": {"system": "HS 578T breast"}, "[40]": {"system": "IGROV1 ovarian"}, "[41]": {"system": "U251 CNS"}, "[42]": {"system": "MOLT-4 leukemia"}, "[43]": {"system": "TK-10 renal"}, "[44]": {"system": "A498 renal"}, "[45]": {"system": "UACC-62 melanoma"}, "[46]": {"system": "MDA-MB-468 breast"}, "[47]": {"system": "UO-31 renal"}, "[48]": {"system": "HCC-2998 colon"}, "[49]": {"system": "MCF7 breast"}, "[50]": {"system": "SNB-19 CNS"}, "[51]": {"system": "UACC-257 melanoma"}, "[52]": {"system": "ACHN renal"}}, "note": "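Grown in 96-well plates, cells were treated for 48 hours with each compound at five concentrations. Insufficient inhibition: endpoint recorded as highest concentration tested. GI50 is the concentration that inhibits growth by half. TGI denotes the concentration required for complete inhibition of growth.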", "data": [{"molecule": "O=C(NN1C(=O)/C(=C/C=C/c2ccc([N+](=O)[O-])o2)SC1=S)c1cccc(O)c1", "values": [{"measurement": "GI50", "setting": "[1]", "result": 1.6, "unit": "µM"}, {"measurement": "TGI", "setting": "[1]", "result": 3.08, "unit": "µM"}, {"measurement": "GI50", "setting": "[2]", "result": 2.12, "unit": "µM"}, {"measurement": "TGI", "setting": "[2]", "result": 5.49, "unit": "µM"}, {"measurement": "GI50", "setting": "[3]", "result": 1.96, "unit": "µM"}, {"measurement": "TGI", "setting": "[3]", "result": 4.63, "unit": "µM"}, {"measurement": "GI50", "setting": "[4]", "result": 2.92, "unit": "µM"}, {"measurement": "TGI", "setting": "[4]", "result": 11.6, "unit": "µM"}, {"measurement": "GI50", "setting": "[5]", "result": 1.28, "unit": "µM"}, {"measurement": "TGI", "setting": "[5]", "result": 5.87, "unit": "µM"}, {"measurement": "GI50", "setting": "[6]", "result": 0.282, "unit": "µM"}, {"measurement": "TGI", "setting": "[6]", "result": 0.921, "unit": "µM"}, {"measurement": "GI50", "setting": "[7]", "result": 0.492, "unit": "µM"}, {"measurement": "TGI", "setting": "[7]", "result": 1.79, "unit": "µM"}, {"measurement": "GI50", "setting": "[8]", "result": 1.25, "unit": "µM"}, {"measurement": "TGI", "setting": "[8]", "result": 2.52, "unit": "µM"}, {"measurement": "GI50", "setting": "[9]", "result": 1.85, "unit": "µM"}, {"measurement": "TGI", "setting": "[9]", "result": 3.38, "unit": "µM"}, {"measurement": "GI50", "setting": "[10]", "result": 1.66, "unit": "µM"}, {"measurement": "TGI", "setting": "[10]", "result": 3.03, "unit": "µM"}, {"measurement": "GI50", "setting": "[11]", "result": 0.662, "unit": "µM"}, {"measurement": "TGI", "setting": "[11]", "result": 1.95, "unit": "µM"}, {"measurement": "GI50", "setting": "[12]", "result": 0.185, "unit": "µM"}, {"measurement": "TGI", "setting": "[12]", "result": 0.367, "unit": "µM"}, {"measurement": "GI50", "setting": "[13]", "result": 1.49, "unit": "µM"}, {"measurement": "TGI", "setting": "[13]", "result": 2.9, "unit": "µM"}, {"measurement": "GI50", "setting": "[14]", "result": 1.07, "unit": "µM"}, {"measurement": "TGI", "setting": "[14]", "result": 2.44, "unit": "µM"}, {"measurement": "GI50", "setting": "[15]", "result": 1.57, "unit": "µM"}, {"measurement": "TGI", "setting": "[15]", "result": 2.92, "unit": "µM"}, {"measurement": "GI50", "setting": "[16]", "result": 0.387, "unit": "µM"}, {"measurement": "TGI", "setting": "[16]", "result": 2.19, "unit": "µM"}, {"measurement": "GI50", "setting": "[17]", "result": 0.167, "unit": "µM"}, {"measurement": "TGI", "setting": "[17]", "result": 0.323, "unit": "µM"}, {"measurement": "GI50", "setting": "[18]", "result": 1.73, "unit": "µM"}, {"measurement": "TGI", "setting": "[18]", "result": 3.19, "unit": "µM"}, {"measurement": "GI50", "setting": "[19]", "result": 0.675, "unit": "µM"}, {"measurement": "TGI", "setting": "[19]", "result": 2.11, "unit": "µM"}, {"measurement": "GI50", "setting": "[20]", "result": 0.256, "unit": "µM"}, {"measurement": "TGI", "setting": "[20]", "result": 1.15, "unit": "µM"}, {"measurement": "GI50", "setting": "[21]", "result": 1.62, "unit": "µM"}, {"measurement": "TGI", "setting": "[21]", "result": 3.02, "unit": "µM"}, {"measurement": "GI50", "setting": "[22]", "result": 0.393, "unit": "µM"}, {"measurement": "TGI", "setting": "[22]", "result": 1.58, "unit": "µM"}, {"measurement": "GI50", "setting": "[23]", "result": 0.205, "unit": "µM"}, {"measurement": "TGI", "setting": "[23]", "result": 0.447, "unit": "µM"}, {"measurement": "GI50", "setting": "[24]", "result": 1.01, "unit": "µM"}, {"measurement": "TGI", "setting": "[24]", "result": 2.26, "unit": "µM"}, {"measurement": "GI50", "setting": "[25]", "result": 1.58, "unit": "µM"}, {"measurement": "TGI", "setting": "[25]", "result": 2.95, "unit": "µM"}, {"measurement": "GI50", "setting": "[26]", "result": 0.253, "unit": "µM"}, {"measurement": "TGI", "setting": "[26]", "result": 0.737, "unit": "µM"}, {"measurement": "GI50", "setting": "[27]", "result": 0.233, "unit": "µM"}, {"measurement": "TGI", "setting": "[27]", "result": 0.63, "unit": "µM"}, {"measurement": "GI50", "setting": "[28]", "result": 1.95, "unit": "µM"}, {"measurement": "TGI", "setting": "[28]", "result": 4.81, "unit": "µM"}, {"measurement": "GI50", "setting": "[29]", "result": 0.571, "unit": "µM"}, {"measurement": "TGI", "setting": "[29]", "result": 2.54, "unit": "µM"}, {"measurement": "GI50", "setting": "[30]", "result": 0.222, "unit": "µM"}, {"measurement": "TGI", "setting": "[30]", "result": 1.1, "unit": "µM"}, {"measurement": "GI50", "setting": "[31]", "result": 1.63, "unit": "µM"}, {"measurement": "TGI", "setting": "[31]", "result": 3.71, "unit": "µM"}, {"measurement": "GI50", "setting": "[32]", "result": 1.91, "unit": "µM"}, {"measurement": "TGI", "setting": "[32]", "result": 4.31, "unit": "µM"}, {"measurement": "GI50", "setting": "[33]", "result": 1.88, "unit": "µM"}, {"measurement": "TGI", "setting": "[33]", "result": 4.18, "unit": "µM"}, {"measurement": "GI50", "setting": "[34]", "result": 1.23, "unit": "µM"}, {"measurement": "TGI", "setting": "[34]", "result": 2.82, "unit": "µM"}, {"measurement": "GI50", "setting": "[35]", "result": 2.12, "unit": "µM"}, {"measurement": "TGI", "setting": "[35]", "result": 5.01, "unit": "µM"}, {"measurement": "GI50", "setting": "[36]", "result": 0.167, "unit": "µM"}, {"measurement": "TGI", "setting": "[36]", "result": 0.371, "unit": "µM"}, {"measurement": "GI50", "setting": "[37]", "result": 2.12, "unit": "µM"}, {"measurement": "TGI", "setting": "[37]", "result": 4.48, "unit": "µM"}, {"measurement": "GI50", "setting": "[38]", "result": 0.209, "unit": "µM"}, {"measurement": "TGI", "setting": "[38]", "result": 0.485, "unit": "µM"}, {"measurement": "GI50", "setting": "[39]", "result": 2.13, "unit": "µM"}, {"measurement": "TGI", "setting": "[39]", "result": 7.7, "unit": "µM"}, {"measurement": "GI50", "setting": "[40]", "result": 1.39, "unit": "µM"}, {"measurement": "TGI", "setting": "[40]", "result": 2.69, "unit": "µM"}, {"measurement": "GI50", "setting": "[41]", "result": 1.39, "unit": "µM"}, {"measurement": "TGI", "setting": "[41]", "result": 2.89, "unit": "µM"}, {"measurement": "GI50", "setting": "[42]", "result": 0.295, "unit": "µM"}, {"measurement": "TGI", "setting": "[42]", "result": 1.28, "unit": "µM"}, {"measurement": "GI50", "setting": "[43]", "result": 1.78, "unit": "µM"}, {"measurement": "TGI", "setting": "[43]", "result": 3.49, "unit": "µM"}, {"measurement": "GI50", "setting": "[44]", "result": 19.7, "unit": "µM"}, {"measurement": "TGI", "setting": "[44]", "result": 33.8, "unit": "µM"}, {"measurement": "GI50", "setting": "[45]", "result": 0.587, "unit": "µM"}, {"measurement": "TGI", "setting": "[45]", "result": 1.93, "unit": "µM"}, {"measurement": "GI50", "setting": "[46]", "result": 1.71, "unit": "µM"}, {"measurement": "TGI", "setting": "[46]", "result": 3.4, "unit": "µM"}, {"measurement": "GI50", "setting": "[47]", "result": 1.41, "unit": "µM"}, {"measurement": "TGI", "setting": "[47]", "result": 2.72, "unit": "µM"}, {"measurement": "GI50", "setting": "[48]", "result": 1.74, "unit": "µM"}, {"measurement": "TGI", "setting": "[48]", "result": 3.15, "unit": "µM"}, {"measurement": "GI50", "setting": "[49]", "result": 1.24, "unit": "µM"}, {"measurement": "TGI", "setting": "[49]", "result": 2.96, "unit": "µM"}, {"measurement": "GI50", "setting": "[50]", "result": 1.81, "unit": "µM"}, {"measurement": "TGI", "setting": "[50]", "result": 3.56, "unit": "µM"}, {"measurement": "GI50", "setting": "[51]", "result": 1.74, "unit": "µM"}, {"measurement": "TGI", "setting": "[51]", "result": 3.54, "unit": "µM"}, {"measurement": "GI50", "setting": "[52]", "result": 1.64, "unit": "µM"}, {"measurement": "TGI", "setting": "[52]", "result": 3, "unit": "µM"}]}]}
